Data reported in patent US12396975B2, “Treatment of al amyloidosis with melflufen” (Oncopeptides AB, priority 2019, dated 2025).
Read-outs that look alike come from different tables or passages of the source.

What was measured:
[1] = system: MM.1S, RPMI-8826, U266 and ALMC-2 cells; assay: Apoptosis and unfolded protein response (UPR) markers in malignant cell lines; assay type: cell-based, human; settings: all cell lines tested; 6 h, 12 h or 24 h
Procedure: The toxic effects of melflufen and melphalan were compared in malignant cell lines, including RPMI-8826, ALMC-2, MM1S, and U266 to confirm enhanced toxicity of melflufen compared to melphalan. ALMC-2 cells are derived from an amyloidosis patient. MM.1S, RPMI-8826, U266 or ALMC-2 cells were incubated in the presence or absence of melflufen-HCl or melphalan at the indicated concentrations in FIG. 5A for 6 h, 12 h or 24 h. Cells were then harvested and apoptosis and cell death in response to melflufen and melphalan were measured by Annexin V/propidium iodide and live/dead cell staining by flow cytometry, as well as analysis of cleaved caspases 3, 8, and 9 and PARP by western blot. Effects of melflufen and melphalan on the UPR were examined by analysis of UPR associated molecules including phosphorylated eIF2a, ATF4, IRE1a and PERK by immunoblot analysis using commercially available detection reagents and standard protocols, and ATF4, ATF6, PERK, IRE1 and CHOP by real time qPCR with gene specific primer sets. In addition, XBP-1 splicing was evaluated by PCR analysis.

[2] = system: lambda light chain secretion in ALMC-2 cells; assay: Human Lambda ELISA of light chain secretion, ALMC-2; assay type: cell-based; settings: 72 h; for IC50: Homo sapiens, ALMC2, light chain secretion in supernatant
Procedure: (§1) Cells were plated in a 96-well format in the presence of the indicated compound in doses ranging from 0.014 to 10 mM for 72 hours at 37° C. Cell viability was determined by CellTiter-Blue™ using the manufacturer's standard protocol. Lambda and kappa light chain secretion was measured in the supernatant of cells by ELISA.
(§2) In more detail, for each cell line (JJN3, ALMC-1 and ALMC-2) cells were harvested, washed, re-suspended into full growth media and counted. The cells were seeded at the cell densities shown in Table 1, below, into the inner 60 wells of a 96-well assay plates (Corning, black-wall plates, Cat #3904) in 50 μl/well aliquots. The plates were incubated overnight at 37° C. in 5% humidified CO2. 10 mM stocks of melphalan or melflufen-HCl were used, and sub-aliquots were prepared from the 10 mM stocks of melphalan or melflufen-HCl by diluting the stock. The diluted stock was added into cell culture media at the indicated concentrations for the experiment (0.014 to 10 mM).
(§3) For analysis of secreted proteins, 72 h after incubation, the cells were pelleted by centrifugation at 300 RCF, 4° C. for 5 min and the supernatant taken and used immediately for ELISA analysis using commercial ELISA kits (below) and the manufacturer's protocols: • Human Kappa ELISA (Bethyl Laboratories, #E80-115) • Human Lambda ELISA (Bethyl Laboratories, #E80-116)

JJN3 cell line = assay: Cell viability by CellTiter-Blue, JJN3; assay type: cell-based, human; settings: 72 h; for IC50: Homo sapiens, JJN-3, cell viability, CellTiter-Blue, doses 0.014 to 10 mM
Procedure: (§4) Cellular toxicity was measured in response to either melflufen or melphalan in the amyloidosis patient-derived light chain secreting ALMC-1 and ALMC-2 cell lines, and the light chain secreting cell line JJN3.
as §1, §2
50 microliters per well of compound/vehicle dilutions were added to the plates in replicates of 3 and incubated for 72 h at 37° C. in 5% humidified CO2. To develop the plates after 72 h, 20 μl of CellTiter-Blue™ reagent was added to each test/blank well. The plates were incubated at 37° C., 5% humidified CO2 for 1.5/3 h. Fluorescence was measured using a VarioSkan Flash plate reader (570 nm excitation wavelength, 600 nm emission wavelength).

ALMC-1 cell line = assay: Cell viability by CellTiter-Blue, ALMC-1; assay type: cell-based, human; settings: 72 h
Procedure: as §4, §1
as §2, with “The diluted stock was added into cell culture media at the indicated concentrations for the experiment (0.014 to 10 mM).” left out
(§5) 50 microliters per well of compound/vehicle dilutions were added to the plates in replicates of 3 and incubated for 72 h at 37° C. in 5% humidified CO2. […] Fluorescence was measured using a VarioSkan Flash plate reader (570 nm excitation wavelength, 600 nm emission wavelength).

[3] = system: plasma cells (CD138+ cells) within bone marrow mononuclear cell samples from AL amyloidosis patients; assay: Multiplexed high throughput flow cytometry cytotoxicity assay on patient-derived bone marrow mononuclear cells; assay type: cell-based, human; settings: for EC50: Homo sapiens; for Cytotoxicity compared to melphalan: in vitro AL amyloidosis cell model, identical concentrations; for Response of plasma cells (CD138+ cells) to treatment: 1 to 100,000 nM
Procedure: Viably frozen bone marrow mononuclear cells (MNC) from 11 amyloidosis patients were received from a biobank.
Viably frozen cells were thawed and incubated overnight to exclude apoptotic cells. On Day 1, a homogeneous cell suspension at a density of 2×10^6 cells/ml was prepared in RPMI 1640 medium (Lonza) supplemented with 10% fetal bovine serum, 2 mM L-glutamine, penicillin (100 U/ml), streptomycin (100 μg/ml) and 25% conditioned medium from the HS-5 human BM stromal cell line. Melflufen powders were stored in pre-weighted amounts in vials in oxygen and moisture free storage pods. Fresh 10 mM melflufen aliquots were prepared in DMSO. Serial dilutions were prepared in cell culture media and immediately transferred to 96 well plate containing mononuclear cells.
A multiplexed high throughput flow cytometer based assay (iQue® Screener PLUS) was applied, allowing simultaneous monitoring of drug responses in multiple hematopoietic cell subsets. A panel of eight antibodies against CD8, CD14, CD19, CD38, CD45, CD56, CD138 and CD269 were purchased. Annexin-V and 7-AAD were included to exclude dead or apoptotic cells from the analysis. Optimal antibody concentrations were determined and fluorescence compensations were computed to correct spectral overlaps between different fluorochromes. The plates containing melflufen treated cells were incubated in a humidified environment at 37° C. and 5% CO2. After 72 h, antibody cocktails were added to the wells and incubated for 30 min before the plates were read with the iQue® Screener PLUS instrument (Intellicyt®). The data was analyzed using ForeCyt software (Intellicyt). Graphpad Prism 7.0 to generate dose response graphs. Singlet mononuclear cells were subjected to dead and apoptotic cell exclusion using DNA staining dye 7-AAD and expression of Annexin-V surface antigens. Live cell counts for each cell populations were used to analyse effect of different doses on cell viability. Surviving cell fraction were computed by normalizing with viability of untreated cells for each cell subsets.
Melflufen was tested in six concentration over 100,000-fold dilutions (1 to 100,000 nM). Out of 12 cell samples tested, two samples were excluded due to poor viability. The viable samples were assigned the reference numbers AL-1886, AL-2983, AL-4839_2, AL-4839_3, AL-4847, AL-5691, AL-5716, AL-5807, AL-7219, AL-400081.

[4] = system: kappa light chain secretion in JJN3 cells; assay: Human Kappa ELISA of light chain secretion, JJN3; assay type: cell-based; settings: 72 h
Procedure: as §1, §2, §3

ALMC-2 cell line = assay: Cell viability by CellTiter-Blue, ALMC-2; assay type: cell-based, human; settings: 72 h
Procedure: as §4, §1
as §2, with “The diluted stock was added into cell culture media at the indicated concentrations for the experiment (0.014 to 10 mM).” left out
as §5

[5] = system: lambda light chain secretion in ALMC-1 cells; assay: Human Lambda ELISA of light chain secretion, ALMC-1; assay type: cell-based; settings: 72 h; for IC50: Homo sapiens, ALMC1, light chain secretion in supernatant
Procedure: as §1, §2, §3

AL amyloidosis = settings: cited from earlier work

## CCOC(=O)[C@H](Cc1ccc(F)cc1)NC(=O)[C@@H](N)Cc1ccc(N(CCCl)CCCl)cc1.Cl [melflufen, L-Melphalanyl-4-fluoro-L-phenylalanine ethyl ester]
[1]
  Sensitivity with regard to inducing apoptosis, XBP-1 splicing and markers of UPR and apoptosis, compared to melphalan: significantly more sensitive to melflufen than melphalan
[2]; ALMC-2
  Inhibition of light chain secretion compared to melphalan: superior inhibition
[2]
  IC50: 450 nM
JJN3 cell line
  IC50: 1200 nM
JJN3 cell line; JJN3
  Sensitivity compared with melphalan: increased sensitivity
ALMC-1 cell line; ALMC-1
  Sensitivity compared with melphalan: increased sensitivity
ALMC-1 cell line; Homo sapiens, ALMC1, cell viability, CellTiter-Blue, doses 0.014 to 10 mM
  IC50: 1600 nM
[3]; 72 h, sample AL-2983, 72 h, read-out: EC50, survival of plasma cells (CD138+ cells)
  EC50: 7 nM
[3]; 72 h, sample AL-4847, 72 h, read-out: EC50, survival of plasma cells (CD138+ cells)
  EC50: 32 nM
[3]; 72 h, sample AL-5807, 72 h, read-out: EC50, survival of plasma cells (CD138+ cells)
  EC50: 1 nM
[3]; cell samples obtained from a population of AL amyloidosis patients, lowest value, read-out: EC50 values as low as, in vitro AL amyloidosis cell model
  EC50: ≥ 1 nM
[3]
  Cytotoxicity compared to melphalan: at least 100 times
[3]; listed as Melflufen
  Cytotoxicity compared to melphalan: 100 times
[3]; plasma cells obtained from patients
  Cytotoxicity in in vitro AL amyloidosis cell model: highly cytotoxic
[3]; samples AL-1886, AL-4839_2, AL-4839_3, AL-5716 and AL-7219, 72 h
  Response of plasma cells (CD138+ cells) to treatment: no notable response
[3]; samples AL-2983, AL-4847, AL-5691, AL-5807 and AL-400081, 72 h
  Response of plasma cells (CD138+ cells) to treatment: displayed sensitivity
[4]; Homo sapiens, JJN-3, light chain secretion in supernatant
  IC50: 2900 nM
[4]; JJN3
  Inhibition of light chain secretion compared to melphalan: superior inhibition
ALMC-2 cell line; ALMC-2
  Sensitivity compared with melphalan: increased sensitivity
ALMC-2 cell line; Homo sapiens, ALMC2, cell viability, CellTiter-Blue, doses 0.014 to 10 mM
  IC50: 1200 nM
[5]; ALMC-1
  Inhibition of light chain secretion compared to melphalan: superior inhibition
[5]
  IC50: 200 nM

## N[C@@H](Cc1ccc(N(CCCl)CCCl)cc1)C(=O)O [melphalan, reference compound]
[2]
  IC50: 5100 nM
JJN3 cell line
  IC50: 5400 nM
AL amyloidosis; high-dose melphalan (for example 200 mg/m^2) with autologous hematopoietic stem cell rescue
  Treatment-related toxicity and mortality: significant treatment-related toxicity and high treatment related mortality rates
AL amyloidosis; melphalan (for example 20-25 mg/m^2) in combination with prednisolone
  Plasma cell levels and survival: reduce plasma cell levels and increase survival rates by a few months
[5]
  IC50: 2500 nM
